# From patent publication US20100204097A1, “THERAPEUTIC METHODS USING A THYMUS PEPTIDE” (IMMUNE SYSTEM KEY LTD., priority 2006, published 2010)
# How the values were obtained:
# [1] = system: mouse N2A neublastoma cells; assay: Induction of apoptosis in mouse N2A neublastoma cells; format: cell-based; details: not shown
# Source text: (§1) It may be seen in FIG. 9 that in untreated cells (time 0), a significant level of FLIP but very little caspase 8 are observed. […] It is seen that the changes in FLIP and caspase 8 are time-sensitive, with the greatest changes seen at the short time points (10′), after which their levels gradually return to baseline. Similar results were obtained with other cell lines as well.
# [2] = system: human breast cancer cells; assay: Induction of apoptosis in human breast cancer cells; format: cell-based; details: not shown
# Source text: as §1
# T1/ST2 receptor = assay: Streptavidin bead pull-down of FC-T1/ST2 by biotin-labeled T101, Western blot; format: binding; details: T101-bio pre-incubated with FC-T1/ST2 45 min at 4° C., Streptavidin beads
# Procedure: An antibody to the T1/ST2 receptor (FC-T1/ST2), and T101 labeled with biotin (T101-bio) were prepared. Streptavidin beads were incubated for 1 hr. at 4° C. with each of the following: A —T101-bio alone; B—Fc-T1/ST2 alone; C—FC-T1/ST2 pre-incubated with T101-bio for 45 min. at 4° C. After incubation, the beads were spun down and washed 3 times with PBS+0.1% Tween 20. The beads were then loaded on SDS-PAGE and a Western blot was performed using antibody against T1/ST2.
# U937 cells [3] = assay: Western blot for the 85 kDa cleavage product of PARP in U937 cells; format: cell-based, human
# Procedure: U937 cells were treated as in FIG. 1 and loaded on SDS-PAGE, except that the gel was treated with antibody against the 85 kDa cleavage product of PARP, which is produced by the cleavage of PARP by caspase 3, and is active in apoptosis.
# The lanes of the gel were loaded with lysed cells which had been incubated with the following concentrations of T101: A —100 ng/ml; B —10 ng/ml; C —1 ng/ml; D —100 pg/ml; E —10 pg/ml; F —0 pg/ml (control). The bands show the location of the 85 kDa cleavage product of PARP.
# U937 cells were treated as in FIG. 2 except that some of the cells were not treated with FCS, i.e. not activated. The lysed cells were loaded on SDS-PAGE, which was treated with antibody against the 85 kDa cleavage product of PARP.
# The lanes of the gel were loaded with lysed cells, as follows: A—activated cells+0 ng/ml T101 (control) [the result with nonactivated cells was similar]; B—nonactivated cells+100 ng/ml T101; C—activated cells+100 ng/ml T101.
# murine spleenocytes [4] = assay: Activated caspase 3 in spleenocytes of mice injected ip with LPS and/or T101; format: in vivo; details: Balb/c mice
# Procedure: Four groups of 3 mice each (male Balb/c, 6 wks old, approx. 20 gr.) were injected ip with the following: A—saline (control); B—50 μg LPS (induces activation of monocytes); C —50 μg LPS+1 μg T101; D—1 μg T101. After 24 hours the mice were sacrificed and the spleens were removed. The spleens of the mice of each group were combined and lysed in RIPA buffer in the presence of protease inhibitors, and 30×10^6 lysed spleenocytes from each group were run on SDS-PAGE. A Western blot of the gel was performed with antibody against activated caspase 3.
# mouse spleenocytes = assay: Expression of VEGFA, VEGFR1 and IL-10 in mouse spleenocytes; format: cell-based; details: increasing concentrations of T101
# Source text: HPRT was included as a negative control.
# Mouse spleenocytes were challenged without or with increasing concentrations of T101. VEGFA, VEGFR1 and IL-10 expression were compared. VEGFA is a major proangiogenic cytokine, and VEGFR1 is a receptor for VEGFA. HPRT was included as a negative control.
# [5] = system: human lung carcinoma cells; assay: Induction of apoptosis in human lung carcinoma cells; format: cell-based; details: not shown
# Source text: as §1
# [6] = Blood cholesterol level in mice after 3 weeks of treatment; format: in vivo; details: female Balb/C mice, 50 μg/Kg twice a day for 3 weeks, pooled blood, versus saline
# Procedure: (§2) Two groups of 7 weeks old female Balb/C mice were injected twice a day for 3 weeks with either T101 (50 μg/Kg) (8 mice), or with saline (control) (7 mice). After 3 weeks, blood was collected from the mice and pooled, and the cholesterol level (mg/DL) was measured.
# human glioblastoma cells = assay: Induction of apoptosis in human glioblastoma cells; format: cell-based; details: not shown
# Source text: as §1
# U937 cells [7] = assay: Western blot for activated caspase 3 in FCS-activated U937 cells; format: cell-based, human; details: U937 cells activated with 10% FCS, 18 hr, 10 pg/ml to 100 ng/ml T101
# Procedure: 10^6 U937 cells, a human leukemic monoblast cell line, were incubated for 18 hr at 37° C. in RPMI buffer+10% fetal calf serum (FCS) with different concentrations of T101. The FCS causes activation of the U937 cells. The cells were then lysed in RIPA buffer in the presence of protease inhibitors, and run on SDS-PAGE. A Western blot of the gel was performed with anti-caspase 3 antibody.
# The lanes of the gel were loaded with lysed cells which had been incubated with the following concentrations of T101: A,B—0 pg/ml (control); C—10 pg/ml; D—100 pg/ml; E—1 ng/ml; F—10 ng/ml; G—100 ng/ml.
# Thus, T101 can be expected to cause apoptosis in activated monocytes, thereby reducing the possibility of development of a disease associated with activated monocytes, such as atherosclerosis.
# murine spleenocytes [8] = assay: Activated caspase 6 in spleenocytes of mice injected ip with LPS and/or T101; format: in vivo; details: Balb/c mice
# [9] = Blood liver enzyme levels (AST, ALP, ALT) in mice after 3 weeks of treatment; format: in vivo; details: female Balb/C mice, 50 μg/Kg twice a day for 3 weeks, versus saline
# Procedure: as §2
# Liver enzymes levels (μg/L) were measured in the blood of the mice of Example 7. The enzymes measured were aspartate aminotransferase (AST), alkaline phosphatase (ALP) and alanine aminotransferase (ALT).
# U937 cells [10] = assay: Western blot for phosphorylated JNK, phosphorylated MAPK p38 and IκB in U937 cells; format: cell-based, human
# Procedure: The U937 cells were incubated for 30 min. with (+) or without (−) T101;
# In order to determine the effect of T101 on various apoptotic signaling pathways, JNK and MAP kinase phosphorylation were measured.
# (§3) In FIG. 10, it can be seen that T101 causes an increase in both JNK and MAPK phosphorylation 30 min after T101 application, while no change in the IκB protein level was detected. No change of IκB levels was detected at shorter time points as well. Therefore, it is assumed that the JNK pathway and MAP kinase pathway are activated by T101, while NF-κB remains unactivated. However, not only the caspase 8 pathway is activated upon T1/ST2 activation by T101, but also the caspase 9 dependent cascade is stimulated.
# U937 cells [11] = assay: Time course of FLIP and caspase 8 in T1/ST2 immuno-precipitated from U937 cells; format: cell-based, human
# Procedure: The samples were obtained from T1/ST2 immuno-precipitated from U937 cells at different time points after incubation with T101. The antibodies used to detect caspase 8 were against the active cleaved species;
# In this example, the time course of the effect of T101 on T1/ST2 receptor-related apoptosis was investigated by following the degradation of FLIP and activation of caspase 8. U937 cells were incubated with T101, and at different time points T1/ST2 was immuno-precipitated from the cells and analyzed by Western blot for the presence of caspase 8 and FLIP.
# U937 cells [12] = assay: Western blot for Bcl-2 and full length caspase 9 in U937 cells; format: cell-based, human
# Procedure: as §3
# [13] = system: murine mammary gland carcinoma cells; assay: Induction of apoptosis in murine mammary gland carcinoma cells; format: cell-based; details: not shown
# Source text: as §1
# [14] = 1 μg T101 without LPS, 24 hours
# [15] = T1/ST2 immuno-precipitate from U937 cells, greatest change at 10′
substance,measurement,setting,value
"T101: human thymus peptide, 51 amino acids: LHLWLSGEPVQSSGTKDMRSKSDSKRVSDKQLISKAVWWTFFLPSTLWERK (listed as Homo sapiens)",induction of apoptosis,[1],able to induce apoptosis
same,induction of apoptosis,[2],able to induce apoptosis
same,binding to the T1/ST2 receptor,T1/ST2 receptor,binds to the T1/ST2 receptor
same,"cleavage of PARP, activated versus nonactivated monocytes","U937 cells [3]; U937 cells with or without FCS, 100 ng/ml T101",induced the cleavage of PARP only in the activated monocytes
same,amount of the 85 kDa cleavage product of PARP,"U937 cells [3]; activated U937 cells, 10 pg/ml T101",significantly increased
same,activated caspase 3 in spleenocytes,murine spleenocytes [4]; [14],inhibition of activated caspase 3
same,activated caspase 3 in spleenocytes,"murine spleenocytes [4]; 50 μg LPS+1 μg T101, 24 hours, versus control",increased amount of activated caspase 3
same,expression of IL-10,mouse spleenocytes,enhanced
same,expression of VEGFA,mouse spleenocytes,inhibits the expression
same,expression of VEGFR1,mouse spleenocytes,inhibits the expression
same,induction of apoptosis,[5],able to induce apoptosis
same,cholesterol level in the blood,[6],significant decrease
same,induction of apoptosis,human glioblastoma cells,able to induce apoptosis
same,activated caspase 3 (Western blot),U937 cells [7],increased activated caspase 3
same,caspase 6 in nonactivated spleenocytes,murine spleenocytes [8]; [14],inhibiting caspase 6
same,caspase 6 in activated spleenocytes,"murine spleenocytes [8]; 50 μg LPS+1 μg T101, 24 hours",induces caspase 6
same,"liver enzyme levels in the blood (AST, ALP, ALT)",[9],significant decrease
same,JNK phosphorylation,U937 cells [10]; 30 min after T101 application,increase
same,MAPK phosphorylation,U937 cells [10]; 30 min after T101 application,increase
same,IκB protein level,U937 cells [10]; 30 min and shorter time points,no change
same,active caspase 8,U937 cells [11]; [15],concomitant increase of active caspase 8
same,level of FLIP,U937 cells [11]; [15],level of FLIP decreases
same,inactive caspase 8,"U937 cells [11]; U937 cells, not shown",decrease of the inactive caspase 8
same,Bcl-2 protein,U937 cells [12],very pronounced degradation
same,full-length caspase 9 protein,U937 cells [12],cleavage of the full-length caspase 9 protein
same,induction of apoptosis,[13],able to induce apoptosis
